Results on five compounds are retold here after ChEMBL document CHEMBL3886513, “Benzothiazole-based pyridinium compounds” (2016).

The target of test [1] is Acetylcholinesterase (Homo sapiens, UniProt P22303). As to the kind of experiment: (§1) AChE/BuChE Inhibition Assay: The cholinesterase assays were performed using colorimetric method reported by Ellman. The appearance of product was monitored at 412 nm for 5 min using a spectrophotometer. The reaction rates were compared and the percent inhibition due to the presence of test compounds was calculated. Inhibition curve was obtained for each compound. The linear regression parameters were determined and the IC50 values extrapolated.
Acetylcholinesterase (Homo sapiens, UniProt P22303), sequence (P22303 whole entry): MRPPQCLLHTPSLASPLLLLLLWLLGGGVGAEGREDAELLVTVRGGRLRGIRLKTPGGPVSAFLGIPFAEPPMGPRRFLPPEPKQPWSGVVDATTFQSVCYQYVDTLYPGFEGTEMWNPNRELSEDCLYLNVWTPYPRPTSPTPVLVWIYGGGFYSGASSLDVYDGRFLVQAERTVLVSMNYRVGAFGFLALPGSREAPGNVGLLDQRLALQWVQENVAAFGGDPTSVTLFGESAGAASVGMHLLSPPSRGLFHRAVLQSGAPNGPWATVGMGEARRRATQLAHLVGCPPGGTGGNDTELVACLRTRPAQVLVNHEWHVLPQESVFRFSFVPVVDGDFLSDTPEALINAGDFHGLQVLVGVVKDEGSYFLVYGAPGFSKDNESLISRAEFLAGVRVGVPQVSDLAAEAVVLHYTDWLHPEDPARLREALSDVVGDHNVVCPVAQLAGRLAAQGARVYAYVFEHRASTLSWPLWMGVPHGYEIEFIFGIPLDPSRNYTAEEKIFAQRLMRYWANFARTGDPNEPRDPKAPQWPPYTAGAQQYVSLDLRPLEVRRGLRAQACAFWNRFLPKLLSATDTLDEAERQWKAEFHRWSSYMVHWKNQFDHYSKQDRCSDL

Test [2] concerns the target Acetylcholinesterase (Electrophorus electricus, UniProt O42275). The test is described as §1.
Test [3] concerns the target Cholinesterase (Homo sapiens, UniProt P06276). The test is described as §1.

Cholinesterase, sequence (P06276 whole entry): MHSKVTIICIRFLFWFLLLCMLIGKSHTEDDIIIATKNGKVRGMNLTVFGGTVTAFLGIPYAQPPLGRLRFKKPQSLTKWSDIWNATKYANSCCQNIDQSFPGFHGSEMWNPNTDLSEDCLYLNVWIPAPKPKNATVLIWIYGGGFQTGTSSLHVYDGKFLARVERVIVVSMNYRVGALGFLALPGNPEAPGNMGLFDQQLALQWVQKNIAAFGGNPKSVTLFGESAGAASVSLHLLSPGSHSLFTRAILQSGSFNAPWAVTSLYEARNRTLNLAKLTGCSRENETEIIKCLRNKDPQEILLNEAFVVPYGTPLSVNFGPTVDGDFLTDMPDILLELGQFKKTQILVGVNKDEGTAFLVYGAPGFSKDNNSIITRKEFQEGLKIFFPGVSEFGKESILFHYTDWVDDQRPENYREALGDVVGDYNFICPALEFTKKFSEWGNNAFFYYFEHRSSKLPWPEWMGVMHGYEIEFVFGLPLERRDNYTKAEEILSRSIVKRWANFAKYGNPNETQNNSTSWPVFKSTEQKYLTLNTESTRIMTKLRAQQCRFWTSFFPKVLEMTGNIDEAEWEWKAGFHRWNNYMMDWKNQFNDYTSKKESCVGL
Acetylcholinesterase (Electrophorus electricus, UniProt O42275), sequence (O42275 whole entry): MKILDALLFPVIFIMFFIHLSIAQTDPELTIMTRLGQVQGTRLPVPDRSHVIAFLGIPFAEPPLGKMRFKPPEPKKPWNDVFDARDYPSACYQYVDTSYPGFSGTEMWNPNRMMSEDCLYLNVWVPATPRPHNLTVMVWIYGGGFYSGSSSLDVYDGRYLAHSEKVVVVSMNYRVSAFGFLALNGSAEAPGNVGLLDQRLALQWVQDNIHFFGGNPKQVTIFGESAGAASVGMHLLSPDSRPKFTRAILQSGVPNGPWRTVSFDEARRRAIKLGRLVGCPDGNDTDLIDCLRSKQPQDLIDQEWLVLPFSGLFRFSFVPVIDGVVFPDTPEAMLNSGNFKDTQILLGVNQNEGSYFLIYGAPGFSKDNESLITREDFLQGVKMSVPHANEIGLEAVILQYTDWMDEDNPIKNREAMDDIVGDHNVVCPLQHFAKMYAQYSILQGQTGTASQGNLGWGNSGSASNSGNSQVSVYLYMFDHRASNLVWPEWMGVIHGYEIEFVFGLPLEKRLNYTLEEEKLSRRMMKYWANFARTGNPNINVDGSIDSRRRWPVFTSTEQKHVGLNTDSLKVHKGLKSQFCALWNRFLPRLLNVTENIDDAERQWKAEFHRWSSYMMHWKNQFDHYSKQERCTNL

In the case of `COc1ccc2nc(NCCc3cc[n+](Cc4c(F)cccc4F)cc3)sc2c1`, the half-inhibitory concentration (IC50) is 0.203 µM in test [1], 0.408 µM in test [2] and 0.826 µM in test [3].
Take `O=[N+]([O-])c1ccc2nc(NCCc3cc[n+](Cc4ccc(F)cc4)cc3)sc2c1`: the IC50 in test [1] was 0.096 µM; in test [2] it was 0.025 µM; in test [3], 11.9 µM.
The matching figures for `COc1ccc2nc(NCCc3cc[n+](Cc4ccc(F)cc4)cc3)sc2c1`: 0.223 µM, 0.542 µM and 5.63 µM.
The matching figures for `Fc1ccc(C[n+]2ccc(CCNc3nc4ccc(F)cc4s3)cc2)cc1`: 0.269 µM, 0.5 µM and 8.16 µM.
In the same order, the values of `COc1ccc2nc(NCCc3cc[n+](Cc4ccccc4)cc3)sc2c1` are 0.186 µM, 0.441 µM and 3.01 µM.
